Assay results reported in PMC10137179, “Assessment of Covalently Binding Warhead Compounds in the Validation of the Cytomegalovirus Nuclear Egress Complex as an Antiviral Target” (Cells, 2023).

Key:
HCMV AD169-GFP = assay: microbe, parasite or virus in culture; type: cell-based, human cytomegalovirus (HCMV); settings: Human betaherpesvirus 5, AD169, 168 h, clinically relevant warheads, 0.1 µM to 50 µM, AD169-GFP-infected HFFs, 7 d p.i.
Description: Cytotoxicity of the analyzed compounds was determined by the Neutral Red dye uptake assay. A total of 1.35 × 10^5 HFFs per well were seeded in 96-well plates 1 d prior to analysis, cultivated overnight until cells were confluent and then incubated with compounds for 7 days. The assay was performed as described previously using 40 μg/mL Neutral Red (Sigma Aldrich). The quantity of dye incorporation was determined using the Victor X4 microplate reader (PerkinElmer, Waltham, MA, USA) by fluorescence measurement at 560/630 nm for excitation/emission, respectively. To assess antiviral activity of compounds, HFFs seeded in 96-well plates (1.35 × 10^5 HFFs per well) were infected with HCMV AD169-GFP or TB40-IE2-YFP to reach 25–50% infected cells at 7 days post-infection (d p.i.). After incubation with the infectious inoculum for 1.5 h at 37 °C, compounds were added in serial dilutions. At 7 d p.i., cells were fixed for 10 min at room temperature using 10% formalin. Finally, cells were washed once with PBS followed by automated fluorescence quantitation.
Seeking for a novel group of potential antiviral agents, small molecules with covalent protein-binding activity were investigated. These small molecules, originally developed as kinase inhibitors, carry a so-called warhead moiety as an important functional group, such as the prototype afatinib (Figure 1A, red circle). In this study, a series of newly generated warhead compounds (most of which are the property of B.K./Lead Discovery Center, Dortmund, Germany) were used for an evaluation of putative antiviral and core NEC-inhibitory properties. In a first step, the antiviral activity of warheads was analyzed against HCMV TB40-IE2-YFP (Figure 1B) and AD169-GFP (Figure 1C). To this end, HFFs were infected with either of the two viral strains before the GFP or YFP reporter signals were measured at 7 d p.i. (in parallel, putative compound cytotoxicity was determined by Neutral Red assay). The HCMVs AD169-GFP and TB40-IE2-YFP, based on BAC-derived recombinants of the laboratory strains AD169 and TB40, respectively, were both propagated on HFFs, and the produced stocks were then used as two reporter viruses for the assessement of antiviral drug activity. While strain AD169 is mainly restricted in its tropism to fibroblasts, TB40 tropism can be extended to fibroblasts and epithelial and endothelial cells. Here, the use of two strains was intended to illustrate the assumption that antiviral activity of these warhead compounds may be directed to conserved viral target proteins, thus pointing out a minor impact of strains.
(A) Chemical structure of a clinically approved prototype of covalently binding warhead inhibitors, […], afatinib/Gilotrif®. The red circle identifies a functionally active α-, β-unsaturated carbonyl group. (B) At 7 d p.i., compounds were analyzed for their cytotoxicity (orange) and antiviral activity (blue) during HCMV infection, using TB40-IE2-YFP as a reporter virus. Cell viability was assessed through Neutral Red staining of uninfected cells. Measurements were performed in quadruplicate (YFP fluorometry) or triplicate (Neutral Red assay), and standard deviations of mean values are given; EC50, CC50 and SI values are indicated accordingly. (C) In a parallel series of analyses, HCMV AD169-GFP was used as another reporter virus representing a second viral strain. […] HCMV AD169-GFP-infected HFFs were treated with 0.1 µM to 50 µM of the compounds (in parallel Neutral Red assay, 0.1 µM to 100 µM), before the signal assessments were performed at 7 d p.i.

[1] = target: T1, HCMV pUL50-HA + pUL53-Flag (Human cytomegalovirus, UniProt P16791); assay: Confocal imaging of core NEC localization in cotransfected HeLa cells, HCMV; type: cell-based; settings: 4 µM, 3 d p.t.
T1 construct: expressed in transfected cells; host or cells: HeLa
Description: (§1) HFF or HFF-UL50 cells, either Dox-induced or uninduced, were seeded in 6-well plates with a density of 2 × 10^5 cells per well, grown on coverslips and infected with HCMV AD169 or AD169 ∆UL50-ΣUL53. For infection experiments with the recombinant virus, different Shield-1 and Dox conditions were analyzed. Antivirals were added post-infection as described for the experiments. For transfection experiments, HeLa cells were seeded on coverslips in 6-well plates with a density of 3.25 × 10^5 cells per well for cotransfection with the indicated NEC expression plasmids (HSV-1 HA-UL34 + Flag-UL31, HCMV pUL50-HA + pUL53-Flag and EBV HA-BFRF1 + Flag-BFLF2). At indicated time points after virus infection, or 3 days post-transfection, cells were fixed, applied for IF staining as described previously and analyzed using a TCS SP5 confocal laser-scanning microscope with Leica LAS AF software (Leica Microsystems, Wetzlar, Germany). […] The device features a Leica photomultiplier tube (PMT) and a hybrid detector (HyD). Images were further processed using Photoshop CS5 (Adobe Inc., San José, CA, USA). […] Microscopic counting was performed for quantitation of colocalization patterns of two different proteins, as achieved by counting 50 cells per biological triplicate. […]

[2] = target: T2, EBV HA-BFRF1 + Flag-BFLF2 (Epstein-Barr virus, UniProt P03185+P0CK47); assay: Confocal imaging of core NEC localization in cotransfected HeLa cells, EBV; type: cell-based; settings: 4 µM, 3 d p.t.
T2 construct: expressed in transfected cells; host or cells: HeLa
Description: as §1

T1 sequence (P16791 whole entry): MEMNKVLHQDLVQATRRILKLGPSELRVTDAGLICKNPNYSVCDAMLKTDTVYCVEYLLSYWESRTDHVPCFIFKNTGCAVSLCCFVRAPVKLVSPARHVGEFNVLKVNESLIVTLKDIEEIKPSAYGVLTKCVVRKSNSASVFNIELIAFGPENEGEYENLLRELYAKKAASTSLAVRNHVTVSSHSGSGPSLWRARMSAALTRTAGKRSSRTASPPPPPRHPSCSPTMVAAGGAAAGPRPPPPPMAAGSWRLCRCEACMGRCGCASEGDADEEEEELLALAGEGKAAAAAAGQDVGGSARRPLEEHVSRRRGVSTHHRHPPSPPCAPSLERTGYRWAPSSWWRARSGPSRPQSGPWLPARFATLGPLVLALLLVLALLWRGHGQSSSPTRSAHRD
T2 sequence (P03185 whole entry): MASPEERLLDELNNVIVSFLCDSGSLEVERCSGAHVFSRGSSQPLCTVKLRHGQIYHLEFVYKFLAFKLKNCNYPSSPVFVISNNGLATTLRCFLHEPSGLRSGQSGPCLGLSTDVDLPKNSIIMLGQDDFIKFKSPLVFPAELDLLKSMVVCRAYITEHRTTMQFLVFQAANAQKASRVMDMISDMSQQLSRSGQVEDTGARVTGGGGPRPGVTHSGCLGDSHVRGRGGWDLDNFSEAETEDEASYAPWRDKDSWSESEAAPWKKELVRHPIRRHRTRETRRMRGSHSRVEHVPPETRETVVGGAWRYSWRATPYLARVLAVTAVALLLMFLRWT
T2 sequence (P0CK47 whole entry): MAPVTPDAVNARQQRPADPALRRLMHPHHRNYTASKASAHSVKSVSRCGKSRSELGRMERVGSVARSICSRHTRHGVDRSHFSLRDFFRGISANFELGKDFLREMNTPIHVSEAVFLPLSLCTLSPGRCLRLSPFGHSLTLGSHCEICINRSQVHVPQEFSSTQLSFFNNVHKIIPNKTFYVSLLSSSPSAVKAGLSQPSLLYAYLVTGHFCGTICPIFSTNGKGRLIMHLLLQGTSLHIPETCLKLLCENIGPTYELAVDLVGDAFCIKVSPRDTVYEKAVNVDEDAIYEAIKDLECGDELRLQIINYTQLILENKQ

C=CC(=O)N1CCC[C@@H](n2nc(-c3ccc(Oc4ccccc4)cc3)c3c(N)ncnc32)C1 [ibrutinib]
EC50 (HCMV AD169-GFP): 16 ± 6 µM
core NEC nuclear rim localization (in words) [1]: predominant dot-like aggregation and speckle formation
core NEC nuclear rim localization (in words) [2]: did not show any similar alteration in nuclear rim localization
